Assay results as given in patent US20200270294A1, “IMMUNOSTIMULATORY ADJUVANTS AND USES THEREOF” (TURUN YLIOPISTO, priority 2015, published 2020).

Experiments:
[1] = tested on: birch-induced production of IL-4 in PBMC; assay: Birch allergen (Bet v) induced IL-4 production in PBMC cultures of birch allergic subjects; type: cell-based, human; settings: for in vitro activity (PBMC model): screen of oligovalent β-(1→2) mannosides; for suppression of birch-induced production of IL-4: Bet v 50 μg/ml, 72 h
Text: (§1) During pollen season, 14 adult birch allergic subjects with allergic rhinoconjunctivitis (12 females and two males) were enrolled in the study (mean age 42.5 years, SD 12.4 years; mean birch-specific IgE (Immunocap, Thermo Fisher Scientific Phadia, Uppsala, Sweden) 36.1 kU/1, SD 31.5 kU/1). They were selected for the study from an earlier cohort based on good birch induced IL-4 responses during pollen season. All samples were taken after informed consent. The study was approved by the local ethics committee.
Peripheral blood mononuclear cells (PBMC) were isolated by Ficoll-Paque density gradient centrifugation (Ficoll-Paque PLUS, GE Healthcare BioSciences AB, Uppsala, Sweden) from heparinized blood samples from study subjects during pollen season. The PBMC were washed twice with Hanks' balanced salt solution (HBSS) buffered with NaHCO3 (pH 7.4) and resuspended in RPMI-1640 culture medium (Invitrogen Co., Carlsbad, Calif., USA) supplemented with 5% autologous serum, 2.5 mM L-glutamine (Sigma-Aldrich Co., St. Louis, Mo.) and 100 μg/ml gentamycin sulfate (Biological Industries Ltd., Kibbutz Beit Haemek, Israel) and applied on 48-well flat-bottomed cell culture plates (Costar, Corning Inc., New York, United States) at a density of […]. Cells were co-cultured in the presence of birch allergen (50 μg/ml, Betula verrucosa, Bet v, Aquagen, ALK-Abellò A/S, Horsholm, Denmark) and compounds 1, 2, 3 and MPL with concentrations 1, 10 and 100 μg/ml and adjuvant CpG-ODN with concentrations 2, 20 and 200 μg/ml to achieve equal molarities. Medium alone served as an unstimulated control. All incubations were performed at +37° C. in humidified atmosphere with 5% CO2. Supernatants from cultures performed in duplicate were collected 72 h after beginning of the stimulation and stored at −70° C.
The cytokines IL-4 and TNF in supernatants were measured with highsensitivity human cytokine Lincoplex kits (LINCO Research, St. Charles, Mo., USA). The assays were performed in accordance with the manufacturer's protocol by employing Luminex technology.
(§2) Wilcoxon's Signed Rank test was used to test statistical significance in PBMC experiments. Single mice groups were compared by the nonparametric Mann-Whitney U-test using GraphPad Prism software (v.5, GraphPad Software Inc., La Jolla, Calif., USA). Data are expressed as mean±SEM and P-values of <0.05 are considered statistically significant.

[2] = tested on: production of pro-inflammatory cytokine TNF in PBMC; assay: TNF production in PBMC cultures stimulated with Bet v; type: cell-based, human; settings: 100 μg/ml (also printed 100 l/ml), Bet v 50 μg/ml, 72 h
Text: as §1
Peripheral blood mononuclear cells (PBMC) were isolated by Ficoll-Paque density gradient centrifugation (Ficoll-Paque PLUS, GE Healthcare BioSciences AB, Uppsala, Sweden) from heparinized blood samples from study subjects during pollen season. […]
The cytokines IL-4 and TNF in supernatants were measured with highsensitivity human cytokine Lincoplex kits (LINCO Research, St. Charles, Mo., USA). […]
Wilcoxon's Signed Rank test was used to test statistical significance in PBMC experiments. […] Data are expressed as mean±SEM and P-values of <0.05 are considered statistically significant.

[3] = tested on: B16 melanoma cells; assay: In vivo model of cancer immunotherapy: B16 melanoma tumor growth in mice; set-up: species or system C57BL/6 mice
Method: as §2
3*10^6 B16 melanoma cells in 100 μl PBS were injected s.c. into the right flank of seven-week-old female C57BL/6 mice. Compound 3 was given i.p. 50 μg/injection in 200 μl PBS five times at 3-day intervals, starting on day 0. Each treatment group contained 10 mice. Tumor volumes were calculated using the formula 0.5*length*width^2. Animals were sacrificed when tumor volumes reached 800 mm^3. Animal experimentations were made following the procedures accepted by Eteli-Suomen Aluehallintavirasto (permission ESAVI/480/Apr. 10.2007/2016).

[4] = 10 μg/ml adjuvant, PBMC of 14 birch allergic patients
[5] = 100 g/ml or 100 l/ml as printed (highest concentration, b131: 100 μg/ml), PBMC

## CC(=O)OCC1O[C@H](OCCn2cc(COCC(COCc3cn(CCO[C@H]4OC(COC(C)=O)[C@@H](OC(C)=O)[C@H](OC(C)=O)C4O[C@@H]4OC(COC(C)=O)[C@@H](OC(C)=O)[C@H](OC(C)=O)C4OC(C)=O)nn3)OCc3cn(CCO[C@H]4OC(COC(C)=O)[C@@H](OC(C)=O)[C@H](OC(C)=O)C4O[C@@H]4OC(COC(C)=O)[C@@H](OC(C)=O)[C@H](OC(C)=O)C4OC(C)=O)nn3)nn2)C(O[C@@H]2OC(COC(C)=O)[C@@H](OC(C)=O)[C@H](OC(C)=O)C2OC(C)=O)[C@@H](OC(C)=O)[C@@H]1OC(C)=O (stereo partly drawn) [compound 1, 1,2,3-tris[1-(3-{0-(2,3,4,6-tetra-O-acetyl-β-D-mannopyranosyl)-(1→2)-3,4,6-tri-O-acetyl-α-D-mannopyranosyloxy}ethyl)-4-methyloxy-1,2,3-triazolyl]propane]
[1]
  in vitro activity (PBMC model): promising in vitro activities

## CC(=O)OC[C@H]1O[C@@H](O[C@@H]2[C@@H](OCCCn3cc(COCC(COCc4cn(CCCO[C@H]5O[C@H](COC(C)=O)[C@@H](OC(C)=O)[C@H](OC(C)=O)[C@@H]5O[C@@H]5O[C@H](COC(C)=O)[C@@H](OC(C)=O)[C@H](OC(C)=O)[C@@H]5OC(C)=O)nn4)OCc4cn(CCCO[C@H]5O[C@H](COC(C)=O)[C@@H](OC(C)=O)[C@H](OC(C)=O)[C@@H]5O[C@@H]5O[C@H](COC(C)=O)[C@@H](OC(C)=O)[C@H](OC(C)=O)[C@@H]5OC(C)=O)nn4)nn3)O[C@H](COC(C)=O)[C@@H](OC(C)=O)[C@@H]2OC(C)=O)[C@@H](OC(C)=O)[C@@H](OC(C)=O)[C@@H]1OC(C)=O (stereo partly drawn) [compound 2, 1,2,3-tris[1-(3-{O-(2,3,4,6-tetra-O-acetyl-β-D-mannopyranosyl)-(1-+2)-3,4,6-tri-O-acetyl-α-D-mannopyranosyloxy}propyl)-4-methyloxy-1,2,3-triazolyl]propane]
[1]; [4]
  suppression of birch-induced production of IL-4: significant suppression
[1]; [5]
  suppression of birch-induced production of IL-4: significant suppression
[1]
  in vitro activity (PBMC model): promising in vitro activities
[2]
  production of pro-inflammatory cytokine TNF: Significantly increased production

## CC(=O)OCC1O[C@@H](OC2C(OC(C)=O)[C@H](OC(C)=O)C(COC(C)=O)O[C@@H]2OCCOCCOCCn2cc(COCC(COCc3cn(CCOCCOCCO[C@H]4OC(COC(C)=O)[C@@H](OC(C)=O)C(OC(C)=O)C4O[C@@H]4OC(COC(C)=O)[C@@H](OC(C)=O)C(OC(C)=O)C4OC(C)=O)nn3)OCc3cn(CCOCCOCCO[C@H]4OC(COC(C)=O)[C@@H](OC(C)=O)C(OC(C)=O)C4O[C@@H]4OC(COC(C)=O)[C@@H](OC(C)=O)C(OC(C)=O)C4OC(C)=O)nn3)nn2)C(OC(C)=O)C(OC(C)=O)[C@@H]1OC(C)=O (stereo partly drawn) [compound 3, 1,2,3-tris(1-{2-[2-(2-[O-(2,3,4,6-tetra-O-acetyl-β-D-mannopyranosyl)-(1→2)-3,4,6-tri-O-acetyl-α-D-mannopyranosyloxy]ethoxy)-ethoxy]ethyl}-4-methyloxy-1,2,3-triazolyl)propane]
[1]; [4]
  suppression of birch-induced production of IL-4: significant suppression
[1]; [5]
  suppression of birch-induced production of IL-4: significant suppression
[1]
  in vitro activity (PBMC model): promising in vitro activities
[2]
  production of pro-inflammatory cytokine TNF: Significantly increased production
[3]; Day 9, i.p. 50 μg/injection five times at 3-day intervals
  tumor volume as compared to control mice: statistically significantly smaller
[3]; i.p. 50 μg/injection five times at 3-day intervals, starting on day 0
  start of tumor growth as compared to control: started later
[3]; i.p. 50 μg/injection five times at 3-day intervals, until Day 9
  tumor growth until Day 9 as compared to control: slower
